Source: US20050214394A1, “Hippophae rhamnoides compositions for cancer therapy” (priority 2003, published 2005)

Assays:
COX-1 = molecular target: T1, COX-1 (Ovis aries, UniProt P05979); test: COX-1 ELISA assay kit (PGHS-1 converting arachidonic acid to prostaglandins); details: commercial anti-inflammatory drug (positive control); concentration not given
T1 sequence (P05979 25-600): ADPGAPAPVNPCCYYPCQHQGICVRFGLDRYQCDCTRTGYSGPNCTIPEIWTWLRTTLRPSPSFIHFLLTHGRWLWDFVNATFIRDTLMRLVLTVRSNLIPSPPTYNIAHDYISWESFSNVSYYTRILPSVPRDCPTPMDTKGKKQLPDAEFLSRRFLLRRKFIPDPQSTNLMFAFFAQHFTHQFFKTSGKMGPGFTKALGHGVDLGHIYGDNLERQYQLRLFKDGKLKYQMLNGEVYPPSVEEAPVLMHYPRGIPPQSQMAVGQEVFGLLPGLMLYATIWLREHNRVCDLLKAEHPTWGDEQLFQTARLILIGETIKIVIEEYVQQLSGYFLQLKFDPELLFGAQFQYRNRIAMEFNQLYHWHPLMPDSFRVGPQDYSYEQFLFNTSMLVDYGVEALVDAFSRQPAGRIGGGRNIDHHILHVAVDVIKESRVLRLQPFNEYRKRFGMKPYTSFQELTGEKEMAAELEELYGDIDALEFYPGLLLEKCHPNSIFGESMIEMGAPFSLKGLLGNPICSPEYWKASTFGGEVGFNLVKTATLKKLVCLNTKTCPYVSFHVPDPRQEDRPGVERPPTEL

COX-2 = molecular target: T2, COX-2 (Homo sapiens, UniProt P35354); test: COX-2 ELISA assay kit (PGHS-2 converting arachidonic acid to prostaglandins)
T2 sequence (P35354 18-604): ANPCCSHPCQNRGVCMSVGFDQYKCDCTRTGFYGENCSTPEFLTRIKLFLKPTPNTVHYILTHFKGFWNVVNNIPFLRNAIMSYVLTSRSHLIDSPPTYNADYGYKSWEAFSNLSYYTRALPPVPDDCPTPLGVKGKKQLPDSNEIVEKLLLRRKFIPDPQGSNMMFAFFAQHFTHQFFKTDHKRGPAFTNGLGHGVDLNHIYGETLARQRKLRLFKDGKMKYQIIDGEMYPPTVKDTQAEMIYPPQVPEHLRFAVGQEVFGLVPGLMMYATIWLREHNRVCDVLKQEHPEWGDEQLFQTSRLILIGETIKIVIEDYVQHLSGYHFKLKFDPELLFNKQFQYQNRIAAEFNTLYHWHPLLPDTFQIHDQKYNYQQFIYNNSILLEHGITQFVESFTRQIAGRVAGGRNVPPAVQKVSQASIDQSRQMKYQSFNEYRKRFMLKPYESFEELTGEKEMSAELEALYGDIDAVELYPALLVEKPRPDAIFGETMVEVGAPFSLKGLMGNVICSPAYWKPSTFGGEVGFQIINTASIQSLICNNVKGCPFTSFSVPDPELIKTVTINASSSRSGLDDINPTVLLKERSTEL
Experimental: The anti-inflammatory assays for COX-2 inhibitory activity were conducted using prostaglandin endoperoxide H synthase-1 and -2 isozymes (PGHS-1, and -2) based on their ability to convert arachidonic acid to prostaglandins (PGs).
Inhibition was measured by COX-1 and COX-2 ELISA assay kits (Cayman Chemical Co., Ann Arbor, Mich.).

For `CC(=O)Oc1ccccc1C(=O)O` [aspirin], the “inhibition of COX-1” value (COX-1) was 58% and the “inhibition of COX-2” value (COX-2) was 42%.
